Reference: patent US20060058296A1, “Treatment of osteolytic lesions associated with multiple myeloma by inhibition of p38 map kinase” (Scios, Inc., priority 2003, published 2006)
Counter-ions that a name gives are not always drawn. One block for each molecule: values may come before it.

Columns and labels:
VEGF = VEGF secretion from MM contact-activated BMSC; type: cell-based, human
Source text: p38 MAPK controls secretion of these factors in-vitro in systems representing the BM milieu.
In addition to promoting vascularization, VEGF is a growth-supporting factor for MM cells. Neovascularization of MM tumors in the marrow allows growth beyond diffusion limitations for gas and nutrient exchange. VEGF is secreted from MM contact-activated BMSC, and this secretion is inhibited by p38 MAPK inhibitor Compound 4 (FIG. 10).

[1] = test system: osteolytic lesions associated with multiple myeloma; assay: Treatment of a patient with osteolytic lesions associated with multiple myeloma; type: in vivo, human; conditions: therapeutic amount
Source text: A patient is diagnosed with multiple myeloma and presents with a number of holes or osteolytic lesions. The osteolytic lesions are caused by the rapid growth of myeloma cells, which displace osteoblasts, and disrupting the balance of bone creation and destruction. […] Osteoblast activity is increased relative to osteoclast activity. Pain from bone destruction, fracture and the like is reduced. The osteolytic lesions are caused by the rapid growth of myeloma cells, which displace osteoblasts, and disrupting the balance of bone creation and destruction. […] Osteoblast activity is increased relative to osteoclast activity. Pain from bone destruction, fracture and the like is reduced.

BMSC = BMSC viability, MTS assay of respiratory activity; type: cell-based, human; conditions: tested up to 50-fold excess of active concentration
Experimental: Neither p38 MAPK inhibition nor high concentrations of p38 MAPK inhibitor (tested up to 50-fold excess of active concentration) affected BMSC viability (FIG. 4). Viability was measured using a standard enzymatic assay of respiratory activity, MTS (3-(4,5-dimethylthiazol-2-yl)-5-(3-carboxymethoxyphenyl)-2-(4-sulfophenyl)-2H-tetrazolium). Results obtained with the p38 MAPK inhibitor are in agreement with published results using a different p38α MAPK inhibitor.

PGE2 = PGE2 levels in LPS-induced human whole blood; type: cell-based
[2] = test system: primary murine marrow derived osteoclast precursors; assay: Osteoclast differentiation, primary murine marrow derived osteoclast precursors; type: cell-based; conditions: di-hydroxy vitamin D induced differentiation; for mature osteoclast formation: 100 nM; for mature osteoclast formation prevented: increasing doses
Experimental: Inhibition of p38α MAPK prevented osteoclast differentiation in two types of standard in vitro models. In the first, primary murine marrow derived osteoclast precursors are cultured in the presence of di-hydroxy vitamin D to induce differentiation. […] In the second model, primary human marrow-derived osteoclast precursors are cultured in the presence of dihydroxy vitamin D [(OH)2D3] to induce differentiation. In both cases, 100 nM of the exemplary p38 MAPK inhibitors prevents osteoclast formation as measured by tartrate resistant acid phosphatase (TRAP) staining or by staining with 23c6 (a mature osteoclast cell surface marker)(FIG. 14).

RANKL mRNA = RANKL mRNA in BMSC and MM/BMSC cultures; type: cell-based, human; conditions: 100 nM
Experimental: In addition, 100 nM of these p38 MAPK inhibitors blocks the weaker induction of RANKL by IL-6 in BMSC.

COX-1 = target: T1, COX-1 (Homo sapiens, UniProt P23219); assay: Activity of platelet-derived preparation of COX-1; type: biochemical
T1 construct: a platelet-derived preparation of COX-1; from tissue; host or cells: platelets
T1 sequence (P23219 24-599): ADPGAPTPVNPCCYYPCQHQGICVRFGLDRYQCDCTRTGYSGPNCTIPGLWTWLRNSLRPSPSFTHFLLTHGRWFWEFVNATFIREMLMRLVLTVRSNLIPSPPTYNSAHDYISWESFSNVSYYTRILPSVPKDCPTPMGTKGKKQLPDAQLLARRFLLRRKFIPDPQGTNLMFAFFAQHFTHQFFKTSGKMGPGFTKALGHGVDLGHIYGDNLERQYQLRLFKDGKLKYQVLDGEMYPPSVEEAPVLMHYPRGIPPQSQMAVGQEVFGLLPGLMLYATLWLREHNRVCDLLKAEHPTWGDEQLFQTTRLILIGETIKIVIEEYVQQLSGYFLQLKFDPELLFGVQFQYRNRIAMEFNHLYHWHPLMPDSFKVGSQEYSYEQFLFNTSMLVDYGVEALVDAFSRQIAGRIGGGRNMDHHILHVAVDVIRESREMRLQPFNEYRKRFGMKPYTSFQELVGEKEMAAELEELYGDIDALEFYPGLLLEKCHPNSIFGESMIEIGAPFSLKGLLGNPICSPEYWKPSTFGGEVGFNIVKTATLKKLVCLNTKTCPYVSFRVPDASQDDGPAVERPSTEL

MIP-1α = MIP-1α production in MM/BMSC co-cultures; type: cell-based, human
Source text: MIP-1α elevation in MM patient serum correlates with disease severity. Unlike many MM-relevant cytokines present in the marrow microenvironment, which are produced mainly by the activated BMSC, MM cells are the primary source of MIP-1α. IL-1 further induces MIP-1α production.

[3] = test system: arthritic lesions in the hind paws; assay: Chick type II collagen arthritis in rats with established disease; type: in vivo, rat
Experimental: Rats treated intradermally with chick type II collagen develop arthritic lesions in the hind paws similar to human arthritic joints with respect to accumulation of pannus tissue, presence of inflammatory cells, and increased expression of inflammatory cytokines. […] Animals were scored daily by an observer blinded with respect to treatment regimen. At the completion of the study on Day 28, radiographic images were analyzed in a blinded manner, based upon the extent of soft tissue swelling, joint space narrowing, and bone destruction. Animal weights at the beginning and end of the study were also recorded, as weight loss is associated with disease progression in this model.

ARH-77 = assay: MM cell proliferation, ARH-77; type: cell-based; conditions: ARH-77, 72-hour exposure
RPMI = assay: MM cell proliferation, RPMI; type: cell-based; conditions: 72-hour exposure
IL-11 = assay: IL-1 and TGFβ induction of IL-11 in BMSC and MM/BMSC cultures; type: cell-based, human; conditions: 100 nM
Source text: p38 MAPK controls secretion of these factors in-vitro in systems representing the BM milieu. […] IL-11 elicits pro-fibrotic responses and promotes osteoclast-driven bone resorption.

IM9 = assay: MM cell proliferation, IM9; type: cell-based; conditions: IM9, 72-hour exposure
TNF-α = assay: LPS-induced TNF-α secretion in whole blood; type: cell-based, human
Experimental: Other in vitro assays can assess the production of TNF-a as a correlation to p38 MAP kinase activity. One such example is a Human Whole Blood Assay. In this assay, venous blood is collected from, e.g., healthy male volunteers into a heparinized syringe and is used within 2 hours of collection. Test compounds are dissolved in 100% DMSO and 1 μl aliquots of drug concentrations ranging from 0 to 1 mM are dispensed into quadruplicate wells of a 24-well microtiter plate (Nunclon Delta SI, Applied Scientific Co., San Francisco, Calif.). Whole blood is added at a volume of 1 ml/well and the mixture is incubated for 15 minutes with constant shaking (Titer Plate Shaker, Lab-Line Instruments, Inc., Melrose Park, Ill.) at a humidified atmosphere of 5% CO2 at 37° C. Whole blood is cultured either undiluted or at a final dilution of 1:10 with RPMI 1640 (Gibco 31800+NaHCO3, Life Technologies, Rockville, Md. and Scios, Inc., Sunnyvale, Calif.). At the end of the incubation period, 10 μl of LPS (E. coli 0111:B4, Sigma Chemical Co., St. Louis, Mo.) is added to each well to a final concentration of 1 or 0.1 μg/ml for undiluted or 1:10 diluted whole blood, respectively. The incubation is continued for an additional 2 hours. The reaction is stopped by placing the microtiter plates in an ice bath, and plasma or cell-free supernates are collected by centrifugation at 3000 rpm for 10 minutes at 4° C. […]

U266B = assay: MM cell proliferation, U266B; type: cell-based; conditions: 72-hour exposure
[4] = test system: human myeloma (RPM18266) tumor; assay: Human myeloma xenograft plasmacytoma model in beige-nude-xid mouse; type: in vivo
Experimental: The p38 MAPK signaling pathway plays an important role in different pathological conditions and specific inhibitors of p38 alpha and beta MAPK block production of the major inflammatory cytokines. Human multiple myeloma (MM) is an incurable neoplasm of terminally differentiated B cells and MM disease progression is affected by immunoregulatory elements such as IL-6 and other cytokines. […] Treatment (90 mg/kg/bid by oral gavage) is initiated in mice with palpable tumor size (˜200 mm^3) as judged by tumor volume.

COX-2 enzyme = target: T2, COX-2 enzyme (Homo sapiens, UniProt P35354); assay: Activity of purified COX-2 enzyme; type: biochemical
T2 sequence (P35354 18-604): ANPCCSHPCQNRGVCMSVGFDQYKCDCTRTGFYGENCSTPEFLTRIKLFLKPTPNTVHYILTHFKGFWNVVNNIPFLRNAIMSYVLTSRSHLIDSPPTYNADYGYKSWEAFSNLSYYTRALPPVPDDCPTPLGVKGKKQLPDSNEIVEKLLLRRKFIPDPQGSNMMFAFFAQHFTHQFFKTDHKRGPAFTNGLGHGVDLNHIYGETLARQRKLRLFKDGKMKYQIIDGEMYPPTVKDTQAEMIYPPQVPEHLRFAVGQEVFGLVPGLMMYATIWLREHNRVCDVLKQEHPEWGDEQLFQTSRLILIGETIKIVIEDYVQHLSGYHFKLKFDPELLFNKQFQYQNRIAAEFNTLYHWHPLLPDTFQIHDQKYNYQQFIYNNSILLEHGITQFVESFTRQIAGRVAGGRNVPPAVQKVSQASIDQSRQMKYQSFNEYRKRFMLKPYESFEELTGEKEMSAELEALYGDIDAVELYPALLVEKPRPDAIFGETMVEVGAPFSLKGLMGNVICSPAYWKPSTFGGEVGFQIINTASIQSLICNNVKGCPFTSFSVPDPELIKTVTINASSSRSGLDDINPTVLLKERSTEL

COX-2 mRNA = assay: LPS-induced COX-2 mRNA; type: cell-based, human
IL-1β = assay: LPS-induced IL-1β release in human whole blood; type: cell-based; conditions: human whole blood (undiluted)
Source text: IL-1β illustrates the importance of amplification loops in myeloma-induced cytokine stimulation. IL-1β plays a well-documented role in the induction of multiple cytokines in a “cytokine network” of feedback loops, including strong induction of IL-6. The ability of IL-1 to increase mRNA expression and induce secretion of the MM-relevant cytokines from MM/BMSC cultures is evidence of this role.

SMILES: COC(=O)C(=O)c1cn(C(=O)c2ccc(Cl)cc2)c2cc(OC)c(C(=O)N3CCC(Cc4ccccc4)CC3)cc12 [Compound 4]
VEGF secretion (VEGF): inhibited

SMILES: C[C@@H]1CN(Cc2ccc(F)cc2)[C@@H](C)CN1C(=O)c1cc2c(C(=O)C(=O)N(C)C)cn(C)c2cc1Cl [Compound 57 hydrochloride salt]
pain from bone destruction, fracture and the like [1]: reduced

activity of a platelet-derived preparation of COX-1 (COX-1): nor did it inhibit
activity of the purified COX-2 enzyme (COX-2 enzyme): did not directly inhibit
SMILES: C[C@@H]1CN(Cc2ccc(F)cc2)[C@@H](C)CN1C(=O)c1cc2c(C(=O)C(=O)N(C)C)cn(C)c2cc1Cl [Compound 57]
BMSC viability (BMSC): Neither p38α MAPK inhibition nor high concentrations of Compound 57 (tested up to 50-fold excess of active concentration) affected BMSC viability
PGE2 levels (PGE2): reduced
mature osteoclast formation [2]: complete blockage
mature osteoclast formation prevented [2]: in a dose dependent manner
basal expression of RANKL mRNA (RANKL mRNA): blocked
RANKL mRNA induction by TGFβ and IL-1 (RANKL mRNA; BMSC cultures): blocked
induction of RANKL by IL-6 (RANKL mRNA; BMSC): blocks
RANKL mRNA induction by TGFβ and IL-1 (RANKL mRNA; MM/BMSC cultures): blocked
IL-1-induced production of MIP-1α (MIP-1α): substantially reduce
untreated production of MIP-1α (MIP-1α): substantially reduce
clinical score ([3]; 10 mg/kg orally once a day): intermediate between the vehicle and 40 mg/kg groups
clinical score ([3]; 40 mg/kg orally once a day, from third day of treatment to Day 28, vs vehicle): statistically significant improvement
reduction in proliferation (ARH-77): about 20%
reduction in proliferation (RPMI): about 20%
IL-1 and TGFβ induction of IL-11 at the mRNA and protein levels (IL-11; BMSC cultures): blocked
IL-1 and TGFβ induction of IL-11 at the mRNA and protein levels (IL-11; MM/BMSC cultures): blocked
reduction in proliferation (IM9): about 20%
LPS-induced TNF-α secretion (TNF-α): dose-dependent reduction
reduction in proliferation (U266B): about 20%
HSP27 expression in tumor cells ([4]; mouse, in vivo): significantly reduce
p38 expression in tumor cells ([4]; mouse, in vivo): significantly reduce
tumor volume ([4]; palpable tumors (~200 mm^3), 90 mg/kg/bid oral gavage, 21 days): significantly reduced
tumor volume ([4]; treatment initiated at pronounced tumor size (~800 mm^3)): significant reduction
number of neoformed microvessels, histological assessment ([4]; vs vehicle): significant reduction
tumor volume, histological assessment at the end of dosing ([4]; vs vehicle): significant reduction
LPS-induced COX-2 mRNA (COX-2 mRNA): inhibited
LPS-induced IL-1β release (IL-1β): dose-dependent reduction

SMILES: CN(C)C(=O)C(=O)c1c[nH]c2cc(Cl)c(C(=O)N3CCC(Cc4ccc(F)cc4)CC3)cc12 [Compound 162]
mature osteoclast formation [2]: complete blockage
mature osteoclast formation prevented [2]: in a dose dependent manner
